Among the data in patent publication US11033539B2, “Compounds of formulas (VII), (VIII), (IX), (XI), (XII), (XIII), and (XIV) as muscarinic receptor 4(M4) antagonists for treating neurological diseases” (Neurocrine Biosciences, Inc., priority 2015, dated 2021) are Ki values, retold here.

The target of the test is human M4 receptor (Homo sapiens (Human), UniProt P08173). Kind of test: Radioligand (tritiated N-methylscopolamine) binding assay, M4. The settings on record: Ki against the M4 receptor; membranes from CHO cells expressing human M4; tritiated N-methylscopolamine 1.5 nM; read-out: Ki. Here is the method: Binding affinity (Ki) of compounds was measured by inhibition of radioligand binding to membranes from CHO cells expressing human M1, M2, M3, M4 and M5 receptors. Membranes were prepared by nitrogen cavitation and differential centrifugation as previously described (Hoare et al., Mol. Pharmacol. 2003 March; 63(3): 751-65). The radioligand employed was tritiated N-methylscopolamine, used at a concentration of 1.5 nM. A dose-response of twelve concentrations of compound was used, ranging from 10 μM to […]. The assay buffer was 50 mM HEPES, 100 mM NaCl, 5 mM MgCl2, 1 mM ethylenediaminetetraacetic acid, pH-adjusted to pH 7.4. Membranes, radioligand and compound were incubated together for 90 minutes at 37° C., in a total volume of 150 μl in a 96-well plate. Receptor-bound radioligand was then collected by harvesting the assay over glass fiber filters pretreated with polyethylenimine to trap the cell membranes, using rapid vacuum filtration. Harvesting and radioactivity counting was conducted as previously described (see, e.g., Hoare et al., Mol. Pharmacol. 2003 63(3):751-65); Erratum at Mol. Pharmacol. 2005 July; 68(1): 260).

Molecules are shown by their SMILES.

Chain of human M4 receptor (P08173 whole entry): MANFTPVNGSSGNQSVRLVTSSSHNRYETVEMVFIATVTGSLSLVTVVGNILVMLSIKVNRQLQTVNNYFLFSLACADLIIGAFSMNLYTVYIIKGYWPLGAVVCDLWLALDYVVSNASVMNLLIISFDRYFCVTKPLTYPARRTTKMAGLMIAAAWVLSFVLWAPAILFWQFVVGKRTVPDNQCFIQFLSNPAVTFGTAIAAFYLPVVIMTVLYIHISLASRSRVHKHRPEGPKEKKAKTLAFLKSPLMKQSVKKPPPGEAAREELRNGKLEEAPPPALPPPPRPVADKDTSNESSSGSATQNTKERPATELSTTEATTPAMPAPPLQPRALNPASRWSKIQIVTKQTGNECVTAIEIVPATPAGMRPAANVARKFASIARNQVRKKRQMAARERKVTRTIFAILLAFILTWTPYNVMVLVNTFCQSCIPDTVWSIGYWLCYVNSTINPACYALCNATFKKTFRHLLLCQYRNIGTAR

For the compound `Nc1nc(N2CCN(C(=O)NCCC3CCN(Cc4ccccc4)CC3)CC2)ncc1Cl` [5-33, 4-(4-amino-5-chloropyrimidin-2-yl)-N-[2-(1-benzylpiperidin-4-yl)ethyl]piperazine-1-carboxamide], the Ki (as a rule, a measure of affinity in units of concentration, obtained from inhibition or displacement) is 10 to 100 nM. Then `Nc1nc(N2CCN(C(=O)NCCC3CCN(Cc4ccccc4)CC3)CC2)ncc1F` [5-34, 4-(4-amino-5-fluoropyrimidin-2-yl)-N-[2-(1-benzylpiperidin-4-yl)ethyl]piperazine-1-carboxamide], with 100 to 1000 nM; and `C[C@@H]1CN(c2cc(F)c(F)c(F)c2)CCN1C(=O)NCCC1CCN(Cc2ccc(C#N)cc2)CC1` [6-2, (2R)-N-(2-{1-[(4-cyanophenyl)methyl]piperidin-4-yl}ethyl)-2-methyl-4-(3,4,5-trifluorophenyl)piperazine-1-carboxamide], with 100 to 1000 nM; and `C[C@@H]1CN(c2cc(F)c(F)c(F)c2)CCN1C(=O)NCCC1CCN(Cc2ccccc2F)CC1` [6-5, (2R)-N-(2-{1-[(2-fluorophenyl)methyl]piperidin-4-yl}ethyl)-2-methyl-4-(3,4,5-trifluorophenyl)piperazine-1-carboxamide], with 10 to 100 nM. Then `C[C@@H]1CN(c2cc(F)c(F)c(F)c2)CCN1C(=O)NCCC1CCN(CC2CCCCC2)CC1` [6-6, (2R)-N-{2-[1-(cyclohexylmethyl)piperidin-4-yl]ethyl}-2-methyl-4-(3,4,5-trifluorophenyl)piperazine-1-carboxamide], with 10 to 100 nM; and `C[C@@H]1CN(c2cc(F)c(F)c(F)c2)CCN1C(=O)NCCC1CCN(Cc2ccccn2)CC1` [6-7, (2R)-2-methyl-N-{2-[1-(pyridin-2-ylmethyl)piperidin-4-yl]ethyl}-4-(3,4,5-trifluorophenyl)piperazine-1-carboxamide], with 10 to 100 nM.

`C[C@@H]1CN(c2cc(F)c(F)c(F)c2)CCN1C(=O)NCCC1CCN(Cc2csnn2)CC1` [6-8, (2R)-2-methyl-N-{2-[1-(1,2,3-thiadiazol-4-ylmethyl)piperidin-4-yl]ethyl}-4-(3,4,5-trifluorophenyl)piperazine-1-carboxamide]: the Ki fell in the range of 10 to 100 nM.

Consider `C[C@@H]1CN(c2cc(F)c(F)c(F)c2)CCN1C(=O)NCCC1CCN(Cc2ccc3c(c2)OCCO3)CC1` [6-9, (2R)-N-{2-[1-(2,3-dihydro-1,4-benzodioxin-6-ylmethyl)piperidin-4-yl]ethyl}-2-methyl-4-(3,4,5-trifluorophenyl)piperazine-1-carboxamide], for which the Ki is 10 to 100 nM. Then `C[C@@H]1CN(c2cc(F)c(F)c(F)c2)CCN1C(=O)NCCC1CCN(Cc2cccc(F)c2)CC1` [6-10, (2R)-N-(2-{1-[(3-fluorophenyl)methyl]piperidin-4-yl}ethyl)-2-methyl-4-(3,4,5-trifluorophenyl)piperazine-1-carboxamide], with 10 to 100 nM; and `N#Cc1ccc(N2CCC(C(=O)NCCC3CCN(Cc4ccc5[nH]ccc5c4)CC3)CC2)nc1` [6-11, 1-(5-cyanopyridin-2-yl)-N-{2-[1-(1H-indol-5-ylmethyl)piperidin-4-yl]ethyl}piperidine-4-carboxamide], with 10 to 100 nM; and `Cc1nc(CN2CCC(CCNC(=O)N3CCN(c4cc(F)c(F)c(F)c4)C[C@H]3C)CC2)cs1` [6-12, (2R)-2-methyl-N-(2-{1-[(2-methyl-1,3-thiazol-4-yl)methyl]piperidin-4-yl}ethyl)-4-(3,4,5-trifluorophenyl)piperazine-1-carboxamide], with 10 to 100 nM. Then `C[C@@H]1CN(c2cc(F)c(F)c(F)c2)CCN1C(=O)NCCC1CCN(Cc2ccccc2OC(F)F)CC1` [6-13, (2R)-N-[2-(1-{[2-(difluoromethoxy)phenyl]methyl}piperidin-4-yl)ethyl]-2-methyl-4-(3,4,5-trifluorophenyl)piperazine-1-carboxamide], with 10 to 100 nM; and `CC(c1ccccc1)N1CCC(CCNC(=O)N2CCN(c3cc(F)c(F)c(F)c3)C[C@H]2C)CC1` (stereo partly drawn) [6-14, (2R)-2-methyl-N-{2-[1-(1-phenylethyl)piperidin-4-yl]ethyl}-4-(3,4,5-trifluorophenyl)piperazine-1-carboxamide], with 10 to 100 nM; and `O=C(NCCC1CCN(Cc2ccc(F)cc2)CC1)c1ccc(OCc2ccccc2)cc1` [6-15, 4-(benzyloxy)-N-(2-{1-[(4-fluorophenyl)methyl]piperidin-4-yl}ethyl)benzamide], with 10 to 100 nM.

As to `C[C@@H]1CN(c2cc(F)c(F)c(F)c2)CCN1C(=O)NCCC1CCN(Cc2ccc(C(N)=O)cc2)CC1` [6-16, (2R)-N-(2-{1-[(4-carbamoylphenyl)methyl]piperidin-4-yl}ethyl)-2-methyl-4-(3,4,5-trifluorophenyl)piperazine-1-carboxamide], the Ki lay in the range of 10 to 100 nM. For the compound `C[C@@H]1CN(c2cc(F)c(F)c(F)c2)CCN1C(=O)NCCC1CCN(Cc2cccc(F)c2F)CC1` [6-17, (2R)-N-(2-{1-[(2,3-difluorophenyl)methyl]piperidin-4-yl}ethyl)-2-methyl-4-(3,4,5-trifluorophenyl)piperazine-1-carboxamide], the Ki lay within 10 to 100 nM. Then `C[C@@H]1CN(c2cc(F)c(F)c(F)c2)CCN1C(=O)NCCC1CCN(Cc2cccc(C#N)c2)CC1` [6-18, (2R)-N-(2-{1-[(3-cyanophenyl)methyl]piperidin-4-yl}ethyl)-2-methyl-4-(3,4,5-trifluorophenyl)piperazine-1-carboxamide], with 10 to 100 nM.

As for `Cc1nnc(C(c2ccccc2)N2CCC(CCNC(=O)N3CCN(c4cc(F)c(F)c(F)c4)C[C@H]3C)CC2)o1` (stereo partly drawn) [6-19, (2R)-2-methyl-N-(2-{1-[(5-methyl-1,3,4-oxadiazol-2-yl)(phenyl)methyl]piperidin-4-yl}ethyl)-4-(3,4,5-trifluorophenyl)piperazine-1-carboxamide], the Ki was in the range of 100 to 1000 nM. Then `C[C@@H]1CN(c2cc(F)c(F)c(F)c2)CCN1C(=O)NCCC1CCN(Cc2cccc(OC(F)(F)F)c2)CC1` [6-20, (2R)-2-methyl-N-[2-(1-{[3-(trifluoromethoxy)phenyl]methyl}piperidin-4-yl)ethyl]-4-(3,4,5-trifluorophenyl)piperazine-1-carboxamide], with 100 to 1000 nM; and `C[C@@H]1CN(c2cc(F)c(F)c(F)c2)CCN1C(=O)NCCC1CCN(Cc2ccccc2OC(F)(F)F)CC1` [6-21, (2R)-2-methyl-N-[2-(1-{[2-(trifluoromethoxy)phenyl]methyl}piperidin-4-yl)ethyl]-4-(3,4,5-trifluorophenyl)piperazine-1-carboxamide], with 100 to 1000 nM; and `C[C@@H]1CN(c2cc(F)c(F)c(F)c2)CCN1C(=O)NCCC1CCN(Cc2ccc(F)c(F)c2F)CC1` [6-22, (2R)-2-methyl-4-(3,4,5-trifluorophenyl)-N-(2-{1-[(2,3,4-trifluorophenyl)methyl]piperidin-4-yl}ethyl)piperazine-1-carboxamide], with 100 to 1000 nM. As for `C[C@@H]1CN(c2cc(F)c(F)c(F)c2)CCN1C(=O)NCCC1CCN(Cc2cc(F)cc(F)c2)CC1` [6-23, (2R)-N-(2-{1-[(3,5-difluorophenyl)methyl]piperidin-4-yl}ethyl)-2-methyl-4-(3,4,5-trifluorophenyl)piperazine-1-carboxamide], the figure is 100 to 1000 nM; as for `C[C@@H]1CN(c2cc(F)c(F)c(F)c2)CCN1C(=O)NCCC1CCN(Cc2ccc(OC(F)(F)F)cc2)CC1` [6-24, (2R)-2-methyl-N-[2-(1-{[4-(trifluoromethoxy)phenyl]methyl}piperidin-4-yl)ethyl]-4-(3,4,5-trifluorophenyl)piperazine-1-carboxamide], 100 to 1000 nM. As for `C[C@@H]1CN(c2cc(F)c(F)c(F)c2)CCN1C(=O)NCCC1CCN(Cc2cc(F)ccc2F)CC1` [6-25, (2R)-N-(2-{1-[(2,5-difluorophenyl)methyl]piperidin-4-yl}ethyl)-2-methyl-4-(3,4,5-trifluorophenyl)piperazine-1-carboxamide], the figure is 100 to 1000 nM; as for `C[C@@H]1CN(c2cc(F)c(F)c(F)c2)CCN1C(=O)NCCC1CCN(Cc2c(F)cccc2F)CC1` [6-28, (2R)-N-(2-{1-[(2,6-difluorophenyl)methyl]piperidin-4-yl}ethyl)-2-methyl-4-(3,4,5-trifluorophenyl)piperazine-1-carboxamide], 100 to 1000 nM; as for `C[C@@H]1CN(c2cc(F)c(F)c(F)c2)CCN1C(=O)NCCC1CCN(Cc2ccccc2C#N)CC1` [6-29, (2R)-N-(2-{1-[(2-cyanophenyl)methyl]piperidin-4-yl}ethyl)-2-methyl-4-(3,4,5-trifluorophenyl)piperazine-1-carboxamide], 100 to 1000 nM.

Take `C[C@@H]1CN(c2cc(F)c(F)c(F)c2)CCN1C(=O)NCCC1CCN(Cc2ccc(C#N)cc2F)CC1` [6-30, (2R)-N-(2-{1-[(4-cyano-2-fluorophenyl)methyl]piperidin-4-yl}ethyl)-2-methyl-4-(3,4,5-trifluorophenyl)piperazine-1-carboxamide]: the Ki fell in the range of 100 to 1000 nM. As for `C[C@@H]1CN(c2ncc(C(F)(F)F)cn2)CCN1C(=O)NCCC1CCN(Cc2ccncc2)CC1` [6-31, (2R)-2-methyl-N-{2-[1-(pyridin-4-ylmethyl)piperidin-4-yl]ethyl}-4-[5-(trifluoromethyl)pyrimidin-2-yl]piperazine-1-carboxamide], the figure is 100 to 1000 nM. As for `C[C@@H]1CN(c2ncc(C(F)(F)F)cn2)CCN1C(=O)NCCC1CCN(Cc2cccnc2)CC1` [6-32, (2R)-2-methyl-N-{2-[1-(pyridin-3-ylmethyl)piperidin-4-yl]ethyl}-4-[5-(trifluoromethyl)pyrimidin-2-yl]piperazine-1-carboxamide], the figure is 10 to 100 nM.
